The record followed here is US10065948B2, “Histone deacetylase inhibitors and compositions and methods of use thereof” (CHDI Foundation, Inc., priority 2014, dated 2018).

Broadly, the pIC50 is the IC50 on a negative log10 scale, so that one unit is a factor of ten.

The target in assay [1] is Histone Deacetylase 4 (HDAC4) catalytic domain (Homo sapiens (Human), UniProt P56524). Nature of the assay: Biochemical HDAC inhibition assay, fluorogenic substrate Boc-Lys(Tfa)-AMC. A digest of the protocol:
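Human HDAC4 catalytic domain (aa 648-1032, C-terminal His6) at 0.2 μg/mL working solution was tested against a 16-point compound dilution series in Tris buffer pH 8.0 for 15 min at 37 °C. Substrate Boc-Lys(Tfa)-AMC was prepared at 50 μM (5×). The reaction was stopped with trypsin plus reference inhibitor for 1 h at 37 °C, and AMC fluorescence was read at Ex 355/Em 460 nm.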

Assay [2] concerns cellular histone deacetylase activity (Lys-Ac). Nature of the assay: Inhibition of cellular HDAC activity (Cell Lys-Ac). The class given is cell-based. Conditions: Lys-Ac substrate.
For assay [3], the system named is cellular histone deacetylase enzymatic activity in Jurkat E6-1 cells. Nature of the assay: Inhibition of cellular HDAC activity, Boc-Lys(Tfa)-AMC substrate (Cell Lys-TFA). The class given is cell-based. A digest of the protocol: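 Jurkat E6-1 cells (75,000/well) were treated with a 16-point compound dilution for 2 h at 37 °C, then exposed to Boc-Lys(Tfa)-AMC for 3 h. Lysis buffer containing trypsin was added overnight (15-16 h), and AMC fluorescence was read at Ex 355/Em 460 nm.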

The mark [4] stands for this setting: Homo sapiens, Jurkat E6.1, Lys-TFA substrate.

pIC50: −log10 of the molar value. Where only a bound is given, the exact number is not on record here.

Histone Deacetylase 4 (HDAC4) catalytic domain, sequence (P56524 648-1032): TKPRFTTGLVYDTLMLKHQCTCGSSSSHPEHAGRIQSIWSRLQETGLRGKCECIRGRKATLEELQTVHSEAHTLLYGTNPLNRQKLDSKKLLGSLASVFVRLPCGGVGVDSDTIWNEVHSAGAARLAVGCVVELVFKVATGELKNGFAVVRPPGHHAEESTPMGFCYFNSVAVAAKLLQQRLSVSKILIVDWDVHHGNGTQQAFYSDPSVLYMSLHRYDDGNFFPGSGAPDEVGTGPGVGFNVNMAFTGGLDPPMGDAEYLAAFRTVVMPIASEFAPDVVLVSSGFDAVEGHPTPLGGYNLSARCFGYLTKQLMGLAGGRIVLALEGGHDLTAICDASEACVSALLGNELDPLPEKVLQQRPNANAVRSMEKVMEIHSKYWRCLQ

`Cc1c(F)cccc1[C@]1(C(=O)NO)CCc2nc(-c3ccccc3Cl)ncc21` [Example 49, (R)-2-(2-chlorophenyl)-5-(3-fluoro-2-methylphenyl)-N-hydroxy-6,7-dihydro-5H-cyclopenta[d]pyrimidine-5-carboxamide]: the pIC50 in assay [1] was 6.99; in assay [2] it was under 4.30; in assay [3] (setting [4]) it was 6.60.
For `Cc1c(F)cccc1C1(C(=O)NO)CCc2nn(CC(F)(F)F)c(C3CC3)c2C1` (stereo not drawn) [Example 39, 3-Cyclopropyl-5-(3-fluoro-2-methylphenyl)-N-hydroxy-2-(2,2,2-trifluoroethyl)-4,5,6,7-tetrahydro-2H-indazole-5-carboxamide] the same measures were 5.36, under 4.30 and 5.74.
Regarding `Cc1c(F)cccc1C1(C(=O)NO)CCc2cn(CC(F)(F)F)nc2CC1` (single isomer, unassigned) [Example 85, E2-(abs)-6-(3-fluoro-2-methylphenyl)-N-hydroxy-2-(2,2,2-trifluoroethyl)-2,4,5,6,7,8-hexahydrocyclohepta[c]pyrazole-6-carboxamide], the values for the negative-log IC50 (pIC50) in assay [1], in assay [2] and in assay [3] (Lys-TFA substrate) were 6.10, under 4.30 and 5.74, respectively.
For `Cc1c(F)cccc1C1(C(=O)NO)CCc2nc(C3CC3)[nH]c(=O)c2C1` (stereo not drawn) [Example 40, 2-Cyclopropyl-6-(3-fluoro-2-methylphenyl)-N-hydroxy-4-oxo-3,4,5,6,7,8-hexahydroquinazoline-6-carboxamide], the negative logarithm of the IC50 (pIC50) in assay [1] is 5.80; in assay [2], under 4.30; in assay [3] (setting [4]), 6.24.
Regarding `Cc1c(F)cccc1[C@]1(C(=O)NO)CCc2nn(Cc3ccccc3)cc21` [Example 94, (R)-2-Benzyl-4-(3-fluoro-2-methylphenyl)-N-hydroxy-2,4,5,6-tetrahydrocyclopenta[c]pyrazole-4-carboxamide], the pIC50 in assay [1] is 6.09; in assay [2], under 4.30; in assay [3] (setting [4]), 5.56.
For `Cc1c(F)cccc1[C@]1(C(=O)NO)Cc2cnn(-c3cccc(Cl)c3)c2C1` [Example 4, (S)-1-(3-Chlorophenyl)-5-(3-fluoro-2-methylphenyl)-N-hydroxy-1,4,5,6-tetrahydrocyclopenta[c]pyrazole-5-carboxamide] the same measures were 7.21, under 4.30 and 7.14.
In the case of `Cc1c(F)cccc1[C@]1(C(=O)NO)Cc2cnn(-c3cccc(Cl)c3F)c2C1` [Example 10, (S)-1-(3-Chloro-2-fluorophenyl)-5-(3-fluoro-2-methylphenyl)-N-hydroxy-1,4,5,6-tetrahydrocyclopenta[c]pyrazole-5-carboxamide], the negative-log IC50 (pIC50) in assay [1] is 7.77; in assay [2] it was under 4.30; in assay [3] (setting [4]) it was 7.77.
As to `Cc1c(F)cccc1[C@]1(C(=O)NO)Cc2cn(-c3ccc(OC(F)F)cc3)nc2C1` [Example 21, (S)-2-(4-(difluoromethoxy)phenyl)-5-(3-fluoro-2-methylphenyl)-N-hydroxy-2,4,5,6-tetrahydrocyclopenta[c]pyrazole-5-carboxamide], the figures for the pIC50 in assay [1], in assay [2] and in assay [3] (setting [4]) were 6.83, under 4.30 and 6.76, respectively.
Consider `Cc1c(F)cccc1C1(C(=O)NO)CCc2nc(-c3cncnc3)sc2C1` (stereo not drawn) [Example 43, 6-(3-Fluoro-2-methylphenyl)-N-hydroxy-2-(pyrimidin-5-yl)-4,5,6,7-tetrahydrobenzo[d]thiazole-6-carboxamide], for which the negative logarithm of the IC50 (pIC50) is 5.72 in assay [1], under 4.30 in assay [2] and 6.18 in assay [3] (setting [4]).
For the compound `Cc1c(F)cccc1[C@@]1(C(=O)NO)Cc2nc(-c3ccnn3C)sc2C1` [Example 69, (R)-5-(3-Fluoro-2-methylphenyl)-N-hydroxy-2-(1-methyl-1H-pyrazol-5-yl)-5,6-dihydro-4H-cyclopenta[d]thiazole-5-carboxamide], the results for the negative logarithm of the IC50 (pIC50) in assay [1], in assay [2] and in assay [3] (setting [4]) were 7.36, under 4.30 and 7.46, respectively.
For the compound `Cc1c(F)cccc1[C@]1(C(=O)NO)CCc2nc(-c3ccc(F)cc3)sc21` [Example 78, (S)-6-(3-Fluoro-2-methylphenyl)-2-(4-fluorophenyl)-N-hydroxy-5,6-dihydro-4H-cyclopenta[d]thiazole-6-carboxamide], the negative-log IC50 (pIC50) was 6.92 in assay [1], under 4.30 in assay [2] and 6.30 in assay [3] (setting [4]).
The matching figures for `Cc1c(F)cccc1[C@]1(C(=O)NO)Cc2cnn(C3CC3)c2C1` [Example 58, (S)-1-Cyclopropyl-5-(3-fluoro-2-methylphenyl)-N-hydroxy-1,4,5,6-tetrahydrocyclopenta[c]pyrazole-5-carboxamide]: 7.32, under 4.30 and 6.90.
For `Cc1ccc(-n2ncc3c2C[C@](C(=O)NO)(c2cccc(F)c2C)C3)cc1` [Example 9, (S)-5-(3-Fluoro-2-methylphenyl)-N-hydroxy-1-(p-tolyl)-1,4,5,6-tetrahydrocyclopenta[c]pyrazole-5-carboxamide], the pIC50 is 7.41 in assay [1], under 4.30 in assay [2] and 7.09 in assay [3] (setting [4]).
Take `Cc1c(F)cccc1C1(C(=O)NO)Cc2ccccc2C1` [Example 82, 2-(3-Fluoro-2-methylphenyl)-N-hydroxy-2,3-dihydro-1H-indene-2-carboxamide]: the pIC50 is 6.96 in assay [1], under 4.30 in assay [2] and 5.74 in assay [3] (setting [4]).
With `Cc1c(F)cccc1[C@]1(C(=O)NO)Cc2cnn(C3CCCC3)c2C1` [Example 18, (S)-1-Cyclopentyl-5-(3-fluoro-2-methylphenyl)-N-hydroxy-1,4,5,6-tetrahydrocyclopenta[c]pyrazole-5-carboxamide], the pIC50 in assay [1] was 7.43; in assay [2], under 4.30; in assay [3] (setting [4]) it was 6.79.
For the compound `Cc1ccc(C)c(-n2ncc3c2C[C@](C(=O)NO)(c2cccc(F)c2C)C3)c1` [Example 12, (S)-1-(2,5-Dimethylphenyl)-5-(3-fluoro-2-methylphenyl)-N-hydroxy-1,4,5,6-tetrahydrocyclopenta[c]pyrazole-5-carboxamide], the pIC50 in assay [1] is 7.68; in assay [2], under 4.30; in assay [3] (setting [4]), 7.74.
The matching figures for `Cc1c(F)cccc1[C@]1(C(=O)NO)Cc2cnn(-c3ccccc3)c2C1` [Example 1, (S)-5-(3-Fluoro-2-methylphenyl)-N-hydroxy-1-phenyl-1,4,5,6-tetrahydrocyclopenta[c]pyrazole-5-carboxamide]: 7.55, under 4.30 and 7.23.
For `Cc1c(F)cccc1[C@@]1(C(=O)NO)Cc2nc(-c3ccc(F)cn3)sc2C1` [Example 96, (R)-5-(3-Fluoro-2-methylphenyl)-N-hydroxy-2-(5-fluoropyridin-2-yl)-5,6-dihydro-4H-cyclopenta[d]thiazole-5-carboxamide] the same measures were 7.29, under 4.30 and 7.22.
As for `Cc1c(F)cccc1[C@]1(C(=O)NO)Cc2cnn(-c3cnccn3)c2C1` [Example 19, (S)-5-(3-Fluoro-2-methylphenyl)-N-hydroxy-1-(pyrazin-2-yl)-1,4,5,6-tetrahydrocyclopenta[c]pyrazole-5-carboxamide], the negative logarithm of the IC50 (pIC50) in assay [1] is 7.42; in assay [2] it was under 4.30; in assay [3] (setting [4]) it was 7.28.
